Molecules are shown by their SMILES.

For experiment [1], the target named is T1, serotoninergic 5-HT1A receptor (Homo sapiens, UniProt P08908).
T1 sequence (P08908 1-422): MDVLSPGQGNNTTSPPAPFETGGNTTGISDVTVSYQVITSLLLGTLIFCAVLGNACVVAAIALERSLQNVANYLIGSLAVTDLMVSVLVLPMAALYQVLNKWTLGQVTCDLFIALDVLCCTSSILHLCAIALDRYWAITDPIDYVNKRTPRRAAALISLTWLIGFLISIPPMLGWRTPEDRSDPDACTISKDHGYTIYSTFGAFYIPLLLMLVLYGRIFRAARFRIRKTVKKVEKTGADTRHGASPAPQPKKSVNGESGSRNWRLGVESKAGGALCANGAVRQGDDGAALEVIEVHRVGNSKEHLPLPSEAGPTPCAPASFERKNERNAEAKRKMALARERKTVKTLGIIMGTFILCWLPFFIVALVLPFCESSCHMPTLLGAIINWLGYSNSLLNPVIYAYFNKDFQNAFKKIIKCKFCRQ
The experiment in a line: Binding assay 5-HT1A (h), [3H]8-OH-DPAT, HEK-293 cells. On the set-up: expressed in transfected cells; host or cells: HEK-293 cells. Particulars: read-out: 5-HT1A. The essentials: (§1)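 Scintillation counting detects receptor-bound radioligand. Compound tested at 1×10^−6 M.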

Experiment [2] addresses serotoninergic 5-HT7 receptor (Homo sapiens, UniProt P34969). In words: Binding assay 5-HT7 (h), [3H]LSD, CHO cells. The arrangement: expressed in transfected cells; host or cells: CHO cells. The note with it: read-out: 5-HT7. The method in brief:
as §1

The target of experiment [3] is T2, serotonine transporter (SERT) receptor (Homo sapiens, UniProt P31645).
T2 construct: expressed in transfected cells; host or cells: CHO cells
T2 sequence (P31645 whole entry): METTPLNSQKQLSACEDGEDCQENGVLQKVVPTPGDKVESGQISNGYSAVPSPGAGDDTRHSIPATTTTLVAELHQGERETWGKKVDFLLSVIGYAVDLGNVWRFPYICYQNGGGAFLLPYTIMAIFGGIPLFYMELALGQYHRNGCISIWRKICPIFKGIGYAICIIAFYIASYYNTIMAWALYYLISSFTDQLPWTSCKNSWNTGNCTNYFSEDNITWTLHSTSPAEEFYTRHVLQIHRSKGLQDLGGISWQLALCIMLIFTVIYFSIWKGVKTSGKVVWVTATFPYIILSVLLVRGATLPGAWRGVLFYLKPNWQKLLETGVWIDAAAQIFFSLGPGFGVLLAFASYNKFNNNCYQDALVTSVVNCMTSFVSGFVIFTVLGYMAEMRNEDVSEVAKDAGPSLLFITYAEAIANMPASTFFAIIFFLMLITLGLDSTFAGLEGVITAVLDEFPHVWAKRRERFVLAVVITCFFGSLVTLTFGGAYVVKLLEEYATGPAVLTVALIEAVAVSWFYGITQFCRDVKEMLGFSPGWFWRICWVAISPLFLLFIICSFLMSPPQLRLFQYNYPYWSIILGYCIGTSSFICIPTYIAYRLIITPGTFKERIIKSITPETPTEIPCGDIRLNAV
In words: Binding assay SERT (h), [3H]imipramine, CHO cells. The note with it: read-out: SERT [%]. The method in brief:
as §1

Experiment [4] deals with adrenergic α1 receptor. The experiment in a line: Binding assay α1 (non-selective), [3H]prazosin, rat cerebral cortex. The note with it: percent inhibition of control specific binding; compounds tested at 1×10^−6 M. The method in brief:
as §1

The target in experiment [5] is serotoninergic 5-HT6 receptor (Homo sapiens, UniProt P50406). The experiment in a line: Binding assay 5-HT6 (h), [3H]LSD, CHO cells. The arrangement: expressed in transfected cells; host or cells: CHO cells. The note with it: read-out: 5-HT6. The essentials:
as §1

Experiment [6] deals with dopaminergic D2 receptor (Homo sapiens, UniProt P14416). The experiment in a line: Binding assay D2S (h), [3H]methyl-spiperone, HEK-293 cells. On the set-up: expressed in transfected cells; host or cells: HEK-293 cells. The note with it: read-out: D2 [%]. The essentials:
as §1

Experiment [7] concerns the target serotoninergic 5-HT2A receptor (Homo sapiens, UniProt P28223). In words: Binding assay 5-HT2A (h), [3H]ketanserin, HEK-293 cells. On the set-up: expressed in transfected cells; host or cells: HEK-293 cells. Particulars: read-out: 5-HT2A. The method in brief: as §1
The target of experiment [8] is dopaminergic D3 receptor (Homo sapiens, UniProt P35462). The experiment in a line: Binding assay D3 (h), [3H]methyl-spiperone, CHO cells. On the set-up: expressed in transfected cells; host or cells: CHO cells. Particulars: read-out: D3 [%]. The method in brief: as §1
Chain of dopaminergic D3 receptor (P35462 whole entry): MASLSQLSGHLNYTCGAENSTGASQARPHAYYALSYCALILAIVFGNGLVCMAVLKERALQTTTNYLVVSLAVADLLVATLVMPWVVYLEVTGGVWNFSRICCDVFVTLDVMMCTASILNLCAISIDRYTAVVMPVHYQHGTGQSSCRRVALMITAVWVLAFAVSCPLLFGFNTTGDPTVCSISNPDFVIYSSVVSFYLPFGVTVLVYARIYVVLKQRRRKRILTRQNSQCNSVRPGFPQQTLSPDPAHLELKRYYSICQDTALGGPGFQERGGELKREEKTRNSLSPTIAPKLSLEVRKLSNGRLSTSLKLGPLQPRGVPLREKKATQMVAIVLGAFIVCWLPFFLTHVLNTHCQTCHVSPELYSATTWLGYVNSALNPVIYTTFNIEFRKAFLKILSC

Chain of serotoninergic 5-HT2A receptor (P28223 whole entry): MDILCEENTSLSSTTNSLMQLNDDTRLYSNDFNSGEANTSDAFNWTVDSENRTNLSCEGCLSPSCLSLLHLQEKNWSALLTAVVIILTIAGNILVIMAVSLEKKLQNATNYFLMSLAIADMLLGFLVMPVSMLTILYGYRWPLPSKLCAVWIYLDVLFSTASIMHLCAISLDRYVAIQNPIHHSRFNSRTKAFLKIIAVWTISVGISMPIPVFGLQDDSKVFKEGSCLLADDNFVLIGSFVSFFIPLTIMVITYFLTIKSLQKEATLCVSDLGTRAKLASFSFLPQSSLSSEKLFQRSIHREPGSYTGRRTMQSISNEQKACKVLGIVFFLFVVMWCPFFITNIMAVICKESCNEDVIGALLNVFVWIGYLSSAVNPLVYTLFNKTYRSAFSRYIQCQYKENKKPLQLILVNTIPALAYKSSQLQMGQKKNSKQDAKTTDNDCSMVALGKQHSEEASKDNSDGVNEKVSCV
Chain of serotoninergic 5-HT7 receptor (P34969 whole entry): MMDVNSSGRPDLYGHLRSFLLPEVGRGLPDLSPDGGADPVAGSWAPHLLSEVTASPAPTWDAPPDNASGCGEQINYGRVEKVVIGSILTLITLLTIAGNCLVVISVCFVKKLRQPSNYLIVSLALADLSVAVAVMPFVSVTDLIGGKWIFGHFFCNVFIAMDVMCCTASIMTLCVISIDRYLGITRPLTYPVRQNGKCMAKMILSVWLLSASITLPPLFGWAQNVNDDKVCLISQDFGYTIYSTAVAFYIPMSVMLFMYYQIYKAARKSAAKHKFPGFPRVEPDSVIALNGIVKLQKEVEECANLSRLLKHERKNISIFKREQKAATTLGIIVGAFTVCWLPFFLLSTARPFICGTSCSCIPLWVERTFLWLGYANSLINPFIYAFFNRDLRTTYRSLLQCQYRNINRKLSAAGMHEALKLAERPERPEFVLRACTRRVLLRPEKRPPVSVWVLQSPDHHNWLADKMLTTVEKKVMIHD
Chain of serotoninergic 5-HT6 receptor (P50406 whole entry): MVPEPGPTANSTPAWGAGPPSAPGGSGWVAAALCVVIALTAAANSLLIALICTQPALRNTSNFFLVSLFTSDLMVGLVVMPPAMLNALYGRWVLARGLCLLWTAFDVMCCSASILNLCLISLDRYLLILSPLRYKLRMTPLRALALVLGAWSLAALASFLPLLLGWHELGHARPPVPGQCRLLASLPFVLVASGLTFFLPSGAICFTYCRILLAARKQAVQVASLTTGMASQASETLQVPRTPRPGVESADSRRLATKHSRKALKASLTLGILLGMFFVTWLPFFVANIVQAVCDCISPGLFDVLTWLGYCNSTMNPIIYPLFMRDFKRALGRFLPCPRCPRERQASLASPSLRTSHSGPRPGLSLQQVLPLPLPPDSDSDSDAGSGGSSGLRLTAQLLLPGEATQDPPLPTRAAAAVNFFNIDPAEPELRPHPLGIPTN
Chain of dopaminergic D2 receptor (P14416 1-414 isoform P14416-2): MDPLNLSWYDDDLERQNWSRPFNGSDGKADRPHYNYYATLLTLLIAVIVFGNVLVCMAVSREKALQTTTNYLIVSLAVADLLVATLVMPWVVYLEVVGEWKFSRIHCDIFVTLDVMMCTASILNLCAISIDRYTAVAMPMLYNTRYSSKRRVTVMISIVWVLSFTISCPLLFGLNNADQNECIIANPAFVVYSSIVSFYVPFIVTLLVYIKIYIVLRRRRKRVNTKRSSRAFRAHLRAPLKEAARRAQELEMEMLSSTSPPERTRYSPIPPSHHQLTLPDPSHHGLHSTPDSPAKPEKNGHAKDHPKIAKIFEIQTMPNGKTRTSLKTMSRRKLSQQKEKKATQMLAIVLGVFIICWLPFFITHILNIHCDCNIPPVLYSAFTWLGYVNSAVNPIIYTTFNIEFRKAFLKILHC

Take `O=S(=O)(NCCCN1CCN(c2cccc3c2OCCO3)CC1)c1cccc(F)c1` [Compound 409, N-[3-[4-(2,3-Dihydro-1,4-benzodioxin-5-yl)piperazin-1-yl]propyl]-3-fluorobenzenesulphonamide]: the inhibition at 1 µM was 81% in experiment [1]; 91% in experiment [2]; 2% in experiment [3]; -9% in experiment [5]; 79% in experiment [6]; 66% in experiment [7]. The inhibition at 1 µM in experiment [8] came out at 85%. Besides, in experiment [4], the “α1 [%]” value is 81%.
In the case of `O=S(=O)(NCCCN1CCN(c2cccc3c2OCCO3)CC1)c1cccc(Cl)c1` [Compound 411, 3-Chloro-N-[3-[4-(2,3-dihydro-1,4-benzodioxin-5-yl)piperazin-1-yl]propyl]benzenesulphonamide], the inhibition at 1 µM in experiment [1] is 95%; in experiment [2], 89%; in experiment [3], 12%; in experiment [5] it was 41%; in experiment [6], 40%; in experiment [7], 4%. Further, the inhibition at 1 µM in experiment [8] turned out to be 52%. In addition, the “α1 [%]” value in experiment [4] is recorded as 87%.
For the compound `Cc1cccc(S(=O)(=O)NCCCN2CCN(c3cccc4c3OCCO4)CC2)c1` [Compound 414, N-[3-[4-(2,3-Dihydro-1,4-benzodioxin-8-yl)piperazin-1-yl]propyl]-3-methylbenzenesulphonamide], the inhibition at 1 µM in experiment [1] was 98%; in experiment [2], 94%; in experiment [3], 18%; in experiment [5], -15%; in experiment [6], 48%; in experiment [7], 76%. Besides, the inhibition at 1 µM in experiment [8] stood at 81%. Moreover, the “α1 [%]” value in experiment [4] came out at 88%.
For `O=S(=O)(NCCCN1CCN(c2cccc3c2OCCO3)CC1)c1ccc(-c2ccccc2)cc1` [Compound 415, N-[3-[4-(2,3-Dihydro-1,4-benzodioxin-5-yl)piperazin-1-yl]propyl]-4-phenylbenzenesulphonamide], the inhibition at 1 µM was 96% in experiment [1]; 92% in experiment [2]; -5% in experiment [3]; 15% in experiment [5]; 58% in experiment [6]; 25% in experiment [7]. Moreover, in experiment [8], the inhibition at 1 µM amounted to 76%. For the same compound, the “α1 [%]” value in experiment [4] is recorded as 78%.
For `O=S(=O)(NCCCN1CCN(c2cccc3c2OCCO3)CC1)c1csc2ccccc12` [Compound 416, N-[3-[4-(2,3-Dihydro-1,4-benzodioxin-5-yl)piperazin-1-yl]propyl]benzothiophene-3-sulphonamide], the inhibition at 1 µM in experiment [1] is 101%; in experiment [2], 99%; in experiment [3], -4%; in experiment [5], 55%; in experiment [6] it was 59%; in experiment [7] it was 58%. Moreover, the inhibition at 1 µM in experiment [8] stood at 56%. Besides, the “α1 [%]” value in experiment [4] is given as 81%.
`O=S(=O)(NCCCN1CCN(c2cccc3c2OCCO3)CC1)c1ccc2c(c1)CCO2` [Compound 417, N-[3-[4-(2,3-Dihydro-1,4-benzodioxin-5-yl)piperazin-1-yl]propyl]-2,3-dihydrobenzofuran-5-sulphonamide]: the inhibition at 1 µM was 100% in experiment [1]; 62% in experiment [2]; -11% in experiment [3]; 24% in experiment [5]; 68% in experiment [6]; -48% in experiment [7]. For the same compound, the inhibition at 1 µM in experiment [8] stood at 67%. Also, the “α1 [%]” value in experiment [4] is 73%.
`Cc1cccc(S(=O)(=O)NCCCN2CCN(c3cccc4[nH]c(=O)[nH]c34)CC2)c1` [Compound 426, 3-Methyl-N-[3-[4-(2-oxo-1,3-dihydrobenzimidazol-4-yl)piperazin-1-yl]propyl]benzenesulphonamide]: the inhibition at 1 µM in experiment [1] is 79%; in experiment [2], 85%; in experiment [3] it was -18%; in experiment [5] it was -4%; in experiment [6] it was 28%; in experiment [7] it was 20%. Further, the inhibition at 1 µM in experiment [8] was found to be 94%. For the same compound, in experiment [4], the “α1 [%]” value is 67%.
Turning to `O=C1COc2c(cccc2N2CCN(CCCCNS(=O)(=O)c3ccc4ccccc4c3)CC2)N1` [Compound 427, N-[4-[4-(3-oxo-4H-1,4-benzoxazin-8-yl)piperazin-1-yl]butyl]naphthalene-2-sulphonamide], the inhibition at 1 µM in experiment [1] worked out at 84%; in experiment [2], 98%; in experiment [3], 13%; in experiment [5] it was 36%; in experiment [6] it was 83%; in experiment [7] it was 49%. Also, the inhibition at 1 µM in experiment [8] was 104%. For the same compound, in experiment [4], the “α1 [%]” value is 86%.
`O=C1COc2c(cccc2N2CCN(CCCCNS(=O)(=O)c3ccc(F)cc3)CC2)N1` [Compound 428, 4-Fluoro-N-[4-[4-(3-oxo-4H-1,4-benzoxazin-8-yl)piperazin-1-yl]butyl]benzenesulphonamide]: the inhibition at 1 µM in experiment [1] was found to be 90%; in experiment [2], 78%; in experiment [3], 23%; in experiment [5] it was 33%; in experiment [6], 78%; in experiment [7], 30%. In addition, in experiment [8], the inhibition at 1 µM was found to be 104%. In addition, in experiment [4], the “α1 [%]” value is recorded as 72%.
On to `O=C1COc2c(cccc2N2CCN(CCCCNS(=O)(=O)c3ccc(C(F)(F)F)cc3)CC2)N1` [Compound 429, N-[4-[4-(3-oxo-4H-1,4-benzoxazin-8-yl)piperazin-1-yl]butyl]-4-(trifluoromethyl)benzenesulphonamide], for which the inhibition at 1 µM in experiment [1] was 88%; in experiment [2] it was 83%; in experiment [3], 22%; in experiment [5], -57%; in experiment [6] it was 61%; in experiment [7] it was 35%. Besides, the inhibition at 1 µM in experiment [8] turned out to be 104%. In experiment [4], the “α1 [%]” value amounted to 78%.
As for `O=C1COc2c(cccc2N2CCN(CCCCNS(=O)(=O)c3cccc(C(F)(F)F)c3)CC2)N1` [Compound 430, N-[4-[4-(3-oxo-4H-1,4-benzoxazin-8-yl)piperazin-1-yl]butyl]-3-(trifluoromethyl)benzenesulphonamide], the inhibition at 1 µM came to 86% in experiment [1]; 84% in experiment [2]; 19% in experiment [3]; 94% in experiment [5]; 69% in experiment [6]; 87% in experiment [7]. Besides, the inhibition at 1 µM in experiment [8] is 101%. Further, in experiment [4], the “α1 [%]” value is recorded as 46%.
For `O=C1COc2c(cccc2N2CCN(CCCCNS(=O)(=O)c3ccc(Cl)s3)CC2)N1` [Compound 431, 5-Chloro-N-[4-[4-(3-oxo-4H-1,4-benzoxazin-8-yl)piperazin-1-yl]butyl]thiophene-2-sulphonamide], the inhibition at 1 µM amounted to 101% in experiment [1]; 67% in experiment [2]; 12% in experiment [3]; 35% in experiment [5]; 68% in experiment [6]; 31% in experiment [7]. For the same compound, the inhibition at 1 µM in experiment [8] worked out at 103%. For the same compound, in experiment [4], the “α1 [%]” value worked out at 88%.

Source of the values: patent publication US8822517B2, “Arylosulfonamides for the treatment of CNS diseases” (Adamed SP. Z O.O., priority 2010, dated 2014).
